Measured values published in publication PMC11513854, “De novo GTP synthesis is a metabolic vulnerability for the interception of brain metastases” (Cell Reports Medicine, 2024).

Columns and labels:
[1] = system: patient-derived BMIC lines from lung-, breast-, and melanoma-BM; assay: Dose-response curves of multiple BM lines; assay type: cell-based, human; settings: 72-h treatment; below plasma Cmax concentration of 10 μM
Text: PrestoBlue readout is normalized to vehicle-treated cells. Data are presented as mean ± SD from 4 technical replicates. (C) Assessment of cell viability of patient-derived BMICs treated with MPA or its vehicle. PrestoBlue readout is normalized to vehicle-treated cells, p < 0.0001. […] Sphere count normalized to vehicle-treated cells, p < 0.0001. (F and G) Percent wound closure of DMSO control vs. MPA-treated cells expressed as an average of replicates (n = 3) and images are taken at 10× magnification. Wound closure (represented by dotted white line) is measured using ImageJ on Incucyte-derived images, p values are indicated. Scale bars are 400 μm. See also Videos S1, S2, S3, and S4. Comparisons of cell viability, sphere formation, and wound closure were made via a two-tailed unpaired t test and data are presented as mean ± SD from 3 to 4 technical replicates. […]
Dose-response assays were conducted using the same protocol apart from drugs being plated using 2-fold serial dilutions (20 μM - 39 nM) as previously described.[66] The half maximal inhibitory concentration (IC50) is determined by plotting percent cell viability by the logarithmic concentration of drug. IC80 concentrations will be used for subsequent functional assays (cell proliferation, sphere formation), as determined by the following formula: ICF=100−F/F^1/H×IC50 where F = fraction of maximal response and H = hill slope.

[2] = system: melanoma-BM; assay: Pre-treatment melanoma-BM PDX model; assay type: in vivo, mice; settings: pre-treated BMICs
Text: (§1) We decided to focus primarily on lung-BM for our in vivo experiments because they account for over 50% of all BM cases. […] This phenotype was also recapitulated in a melanoma-BM PDX model (Figures S2A and S2B).
Fig S2. PDX m odels m im ic patient data, related to Figure 3. a, Representative IVIS bioluminescence images of […]
imaging system. Comparisons were made via a two-tailed unpaired t-test and data are presented as mean ± SED from 4-5 technical replicates. […]
following intracranial engraftment of patient-der ived BMICs. Comparisons were made via a Log-rank (Mantel-Cox) test, P value is indicated. c, CRUK0748, a patient- derived lung tumor cell line that metastasized to the brain of the patient it was retrieved from, was confirmed to metastasize to the brains of mice in our animal models following intrathoracic injection. CRUK0733, a patient-derived lung tumor cell line that has not metastasized to the brain of […]
anti-proliferative effect on BMICs isolated from the brains of mice following CRUK0748 metastasis to the brain.
(1 picture or pasted object on this page, not shown here)

[3] = system: patient-derived BMICs; assay: Pre-treatment PDX model, intracranial engraftment of lung-BMICs; assay type: in vivo, mice; settings: vs placebo
Text: as §1
Comparisons were made via a two-tailed unpaired t test and data are presented as mean ± SD from 4 to 5 technical replicates. p value is indicated. (C) Schematic of experimental timeline. […] IVIS, in vivo imaging system. Comparisons were made via a two-tailed unpaired t test and data are presented as mean ± SD from 4 to 5 technical replicates. p value is indicated. […] Comparisons were made via a log rank (Mantel-Cox) test, p value is indicated. (G) Quantification of human cells in mouse brains by flow cytometry at the humane endpoint. […]
All experimental procedures involving animal work has been reviewed and approved by McMaster University Animal Research Ethics Board. […] Mice are monitored weekly for signs of illness until endpoint.
Bioluminescent imaging was performed using an IVIS Spectrum In Vivo Imaging System (PerkinElmer) as per the manufacturer’s instructions. Imaging and quantification of signals is controlled by the analysis software Living Image (Xenogen). […] Regions of interest were quantified by bioluminescent signal (photons per second) using Living Image software for a standardized comparison between images.

[4] = system: patient-derived BMICs; assay: Clonogenic secondary sphere formation assay after drug removal; assay type: cell-based, human; settings: IC80 treatment for 72 h, then removal from culture media
[5] = Parallel artificial membrane permeability (PAMPA) assay; assay type: in vitro ADME; settings: 50 μM, pH 7.4, 16 h; −LogPe < 6 indicate high CNS permeability
Description: The permeability of the compounds was evaluated using the parallel artificial membrane permeability (PAMPA) assay, as previously described.[35] The PAMPA assembly was consisted of the acceptor plate (MultiScreen IP Filter Plate, Millipore Sigma, Canada) and the donor plate (96 well Collection Plate, Millipore Sigma, Canada). The artificial membrane solution was prepared as 15 mg/mL of polar brain lipid from porcine (Sigma Aldrich, Oakville, Canada) in a solution of 60% chloroform/40% dodecane. Seven μL of the mixture was pipetted into each acceptor plate well (top compartment). Thereafter, 300 μL of PBS (1 × PBS, pH 7.4, 5% DMSO) solution was added to each well of the acceptor plate and 300 μL of drug-containing donor solutions (50 μM compounds in 1 × PBS, pH 7.4, 5% DMSO) to each well of the donor plate (bottom compartment) in triplicate. […] The concentration of the compounds was determined by LC/MS/MS. The effective permeability (Pe), in units of centimeter per second, was calculated using the following equation: LogPe=Log{C×[−Ln(1−[drug]acceptor/[drug]equilibrium)]} Where: C = VD × VA/[(VD + VA) × t × A]; VD = volume of donor compartment (0.30 mL); VA = volume of acceptor compartment (0.30 mL); A = filter area (0.24 cm^2 for Multi-Screen Permeability Filter plate); and t = incubation time (in seconds).

SMILES	anti-BMIC activity against multiple BMIC lines [1]	brain tumor burden and survival phenotype [2]	brain tumor burden ([3]; BMICs pre-treated at IC80, 2 weeks post-injection, IVIS)	survival ([3]; BMICs pre-treated at IC80, intracranial engraftment)	sphere-forming capability following drug removal [4]	BBB penetrance by PAMPA [5]
COc1c(C)c2c(c(O)c1C/C=C(\C)CCC(=O)O)C(=O)OC2 [MPA, Mycophenolic acid]	relatively high anti-BMIC activity	recapitulated	significantly reduced brain tumor burden	survived significantly longer	do not regain sphere-forming capability	
COc1c(C)c2c(c(O)c1C/C=C(\C)CCC(=O)OCCN1CCCC1)C(=O)OC2 [Compound 3]						BBB penetrant
